Legend:
Type in all cases: cell-based
H460 cells = assay: MTT cytotoxicity on lung cancer cells (H460); details: medium with 0.5% serum
Method: H460 cells were dispensed in medium containing 0.5% serum at 1×10^4 per well, and were treated with the compounds. MTT solution (5 mg/mL) was diluted 10-fold, and dispensed at 10 μl per well, followed by culturing for 30 minutes. The precipitate was dissolved in 100 μl of DMSO, and the absorbance was measured using a microplate reader (Sunrise, TECAN) at a wavelength of […].

[1] = Cytotoxicity on normal cell line VERO (cell counting kit-8, WST-8); details: African green monkey, VERO cells (kidney cell line), read-out: Cytotoxicity CC50 (μM), ERO
Method: (§1) For the normal cell lines, five cell lines, VERO (African green monkey kidney cell line), HFL-1 (human embryonic lung cell line), L929 (NCTC clone 929, mouse fibroblast cell line), NIH 3T3 (mouse embryonic fibroblast cell line), and CHO-K1 (Chinese hamster overy cell line) were used.
(§2) For the cytotoxicity, all the cells were seeded at 1×10^4, and for a generalized test for investigating cell viability, the CC50 value, which is the concentration of a compound killing 50% of cells, was measured by cell counting kit-8 assay using tetrazolium salt named WST-8 displaying a pale yellow color.

[2] = Cytotoxicity on normal cell line HFL-1 (cell counting kit-8, WST-8); details: human, HFL-1 cells (embryonic lung cell line); HFL-1 normal cell line; read-out: Cytotoxicity CC50 (μM), FL-1
Method: as §1, §2

[3] = Cytotoxicity on normal cell line L929 (cell counting kit-8, WST-8); details: mouse, L929 cells (NCTC clone 929, fibroblast cell line)
Method: as §1, §2

[4] = Cytotoxicity on normal cell line NIH 3T3 (cell counting kit-8, WST-8); details: mouse, NIH 3T3 cells (embryonic fibroblast cell line); NIH 3T3 normal cell line
Method: as §1, §2

[5] = Cytotoxicity on normal cell line CHO-K1 (cell counting kit-8, WST-8); details: Chinese hamster, CHO-K1 cells (ovary cell line)
Method: as §1, §2

Row | SMILES | Inhibition of proliferation of H460 cells (MTT, FIG. 1) (H460 cells) | CC50 [1] [µM] | CC50 [2] [µM] | CC50 [3] [µM] | CC50 [4] [µM] | CC50 [5] [µM]
1 | Cc1ccnc(NC(=O)/C=C\C(=O)N2CCOCC2)c1 [Example 1-20, (Z)—N-(4-methylpyridin-2-yl)-4-morpholino-4-oxobut-2-enamide] | significantly inhibited the proliferation of H460 cells in a dose-dependent manner | 100 | 100 | 100 | > 100 | > 100
2 | Cc1ccnc(NC(=O)/C=C\C(=O)N2CCCCC2)c1 [Example 1-14, (Z)—N-(4-methylpyridin-2-yl)-4-oxo-4-(piperidin-1-yl)but-2-enamide] | significantly inhibited the proliferation of H460 cells in a dose-dependent manner |  |  |  |  | 

— patent US20160152607A1, “MALEIC ACID DERIVATIVE, PRODUCTION METHOD FOR SAME, AND ANTI-CANCER COMPOSITION COMPRISING SAME” (Medicinal Bioconvergence Research Center, priority 2013, published 2016)
